# In publication PMC3557166, “'Le Rouge et le Noir': A decline in flavone formation correlates with the rare color of black dahlia (Dahlia variabilis hort.) flowers” (BMC Plant Biology, 2012):
# Changes are numbered by the printed parent chain.
# Experiments:
# [1] = target: T1, FNS II (cv. Aurora's Kiss, GQ489010) (Dahlia pinnata, UniProt G3BGL8); assay: […]-flavanone conversion to flavone, TLC radioscan, recombinant yeast preparation; type: biochemical; details: NADPH; labelled compound
# T1 construct: full-length ORF in pYES2.1/V5-His-TOPO, expressed in S. cerevisiae INVSc1
# T1 sequence (G3BGL8 1-513): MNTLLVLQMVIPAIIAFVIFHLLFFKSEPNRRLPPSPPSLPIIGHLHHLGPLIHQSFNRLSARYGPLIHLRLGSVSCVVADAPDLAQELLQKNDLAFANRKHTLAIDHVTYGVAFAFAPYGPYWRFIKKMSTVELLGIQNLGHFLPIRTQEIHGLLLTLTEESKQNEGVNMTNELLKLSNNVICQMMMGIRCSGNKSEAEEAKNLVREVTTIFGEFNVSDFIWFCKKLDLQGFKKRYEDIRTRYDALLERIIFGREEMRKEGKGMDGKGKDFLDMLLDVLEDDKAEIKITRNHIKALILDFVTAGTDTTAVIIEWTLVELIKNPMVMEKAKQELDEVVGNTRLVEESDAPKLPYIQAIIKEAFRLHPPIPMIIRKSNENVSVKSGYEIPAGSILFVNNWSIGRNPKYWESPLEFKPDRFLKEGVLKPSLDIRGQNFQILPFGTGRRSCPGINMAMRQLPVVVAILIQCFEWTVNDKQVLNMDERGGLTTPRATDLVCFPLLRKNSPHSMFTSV
# [2] = target: T2, FNS II (cv. Chat Noir, GQ489008) (Dahlia pinnata, UniProt G3BGL6); assay: as above; type: biochemical; details: NADPH; labelled compound
# T2 construct: full-length ORF in pYES2.1/V5-His-TOPO, expressed in S. cerevisiae INVSc1
# T2 sequence (G3BGL6 1-514): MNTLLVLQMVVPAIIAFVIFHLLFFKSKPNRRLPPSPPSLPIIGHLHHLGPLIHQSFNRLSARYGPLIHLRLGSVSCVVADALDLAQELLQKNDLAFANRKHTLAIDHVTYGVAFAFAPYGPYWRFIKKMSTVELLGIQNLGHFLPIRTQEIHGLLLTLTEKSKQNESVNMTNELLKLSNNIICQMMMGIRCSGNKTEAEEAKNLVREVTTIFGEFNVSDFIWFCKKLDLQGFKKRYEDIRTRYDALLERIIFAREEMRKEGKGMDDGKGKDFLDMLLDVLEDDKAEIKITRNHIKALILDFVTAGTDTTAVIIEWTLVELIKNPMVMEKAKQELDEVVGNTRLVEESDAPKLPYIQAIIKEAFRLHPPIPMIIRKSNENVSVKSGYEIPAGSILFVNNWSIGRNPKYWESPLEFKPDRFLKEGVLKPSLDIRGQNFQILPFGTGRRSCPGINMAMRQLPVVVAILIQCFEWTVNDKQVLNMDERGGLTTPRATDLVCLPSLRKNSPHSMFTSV
# [3] = target: T3, FNS II (cv. Feuerschein, GQ479806) (Dahlia pinnata, UniProt G8Z369); assay: as above; type: biochemical; details: NADPH; labelled compound
# T3 construct: gene DvFNS1; full-length ORF in pYES2.1/V5-His-TOPO, expressed in S. cerevisiae INVSc1
# T3 sequence (G8Z369 1-514): T2 sequence (G3BGL6 1-514) with V11I, L83P, D266E, L499F, S501L
# [4] = target: T4, FNS II (cv. Alva's Supreme, GQ479807) (Dahlia pinnata, UniProt G8Z370); assay: as above; type: biochemical; details: NADPH; labelled compound
# T4 construct: full-length ORF in pYES2.1/V5-His-TOPO, expressed in S. cerevisiae INVSc1
# T4 sequence (G8Z370 1-514): T2 sequence (G3BGL6 1-514) with V11I, L83P, C184Y, L499F, S501L
# [5] = target: T5, FNS II (cv. White Alva, GQ489011) (Dahlia pinnata, UniProt G3BGL9); assay: as above; type: biochemical; details: NADPH; labelled compound
# T5 construct: full-length ORF in pYES2.1/V5-His-TOPO, expressed in S. cerevisiae INVSc1
# T5 sequence (G3BGL9 1-513): T1 sequence (G3BGL8 1-513) with I19L, E28K, A80V, L157Q, E162K, G168S, F224C, V462I
# [6] = target: T6, FNS II (cv. Rubens, GQ479809) (Dahlia pinnata, UniProt G8Z372); assay: as above; type: biochemical; details: NADPH; labelled compound
# T6 construct: full-length ORF in pYES2.1/V5-His-TOPO, expressed in S. cerevisiae INVSc1
# T6 sequence (G8Z372 1-513): T1 sequence (G3BGL8 1-513) with F24V, E162K, G168S, K421E, D482N, T489A, S512L
# [7] = system: T7, recombinant FNS II (cv. Rubens GQ479808 and cv. Chat Noir GQ489009); assay: […]-flavanone conversion to luteolin, TLC radioscan, recombinant yeast preparation; type: biochemical, Dahlia pinnata; details: NADPH; pH optimum 7.50; 25-30°C optimum; labelled compound; clone (GQ479808 or GQ489009) not told; read-out: apparent Km
# T7 construct: full-length ORF in pYES2.1/V5-His-TOPO, expressed in S. cerevisiae INVSc1
# [8] = system: T7, recombinant FNS II (cv. Rubens GQ479808 and cv. Chat Noir GQ489009); assay: […]-flavanone conversion to apigenin, TLC radioscan, recombinant yeast preparation; type: biochemical, Dahlia pinnata; details: NADPH; pH optimum 6.50; 25-30°C optimum; labelled compound; clone (GQ479808 or GQ489009) not told; read-out: apparent Km
Structure (SMILES),"14C-flavanone conversion to flavone, TLC radioscan, recombinant yeast preparatio [1]","14C-flavanone conversion to flavone, TLC radioscan, recombinant yeast preparatio [2]","14C-flavanone conversion to flavone, TLC radioscan, recombinant yeast preparatio [3]","14C-flavanone conversion to flavone, TLC radioscan, recombinant yeast preparatio [4]","14C-flavanone conversion to flavone, TLC radioscan, recombinant yeast preparatio [5]","14C-flavanone conversion to flavone, TLC radioscan, recombinant yeast preparatio [6]",Km [7] [µM],Km [8] [µM]
O=C1C[C@@H](c2ccc(O)c(O)c2)Oc2cc(O)cc(O)c21 [eriodictyol],"formation of apigenin and luteolin from naringenin and eriodictyol, respectively","formation of apigenin and luteolin from naringenin and eriodictyol, respectively","formation of apigenin and luteolin from naringenin and eriodictyol, respectively","formation of apigenin and luteolin from naringenin and eriodictyol, respectively","formation of apigenin and luteolin from naringenin and eriodictyol, respectively","formation of apigenin and luteolin from naringenin and eriodictyol, respectively",4.2,
O=C1C[C@@H](c2ccc(O)cc2)Oc2cc(O)cc(O)c21 [naringenin],"formation of apigenin and luteolin from naringenin and eriodictyol, respectively","formation of apigenin and luteolin from naringenin and eriodictyol, respectively","formation of apigenin and luteolin from naringenin and eriodictyol, respectively","formation of apigenin and luteolin from naringenin and eriodictyol, respectively","formation of apigenin and luteolin from naringenin and eriodictyol, respectively","formation of apigenin and luteolin from naringenin and eriodictyol, respectively",,3.86
